Test results as given in PubChem BioAssay AID256 (DTP/NCI, 2004).
Inconclusive results and toxic doses are left out. Rule for the calls: active = survival T/C of 150% or more; inactive = T/C below 125% in these data.

System: CD2F1 mice, L1210 leukemia ip, survival T/C
Experiment: NCI In Vivo Anticancer Drug Screen. Data for tumor model L1210 Leukemia (intraperitoneal) in CD2F1 (CDF1) mice
Conditions: higher = longer survival
Summary of the method: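 Compound-dosed mice with transplantable tumor versus matched vehicle controls; endpoint ratio T/C reported.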

[1] = endpoint: mean survival time, dose: 100.0 mg/kg/injection, schedule: Q04DX002 (ip), vehicle: saline with Tween-80
[2] = endpoint: mean survival time, dose: 200.0 mg/kg/injection, schedule: Q04DX002 (ip), vehicle: saline with Tween-80
[3] = endpoint: mean survival time, dose: 400.0 mg/kg/injection, schedule: Q04DX002 (ip), vehicle: saline with Tween-80
[4] = endpoint: mean survival time, dose: 100.0 mg/kg/injection, schedule: Q01DX009 (ip), vehicle: saline with Tween-80
[5] = endpoint: mean survival time, dose: 100.0 mg/kg/injection, schedule: Q04DX003 (ip), vehicle: saline with Tween-80
[6] = endpoint: mean survival time, dose: 200.0 mg/kg/injection, schedule: Q01DX009 (ip), vehicle: saline with Tween-80
[7] = endpoint: mean survival time, dose: 200.0 mg/kg/injection, schedule: Q04DX003 (ip), vehicle: saline with Tween-80
[8] = endpoint: mean survival time, dose: 400.0 mg/kg/injection, schedule: Q01DX009 (ip), vehicle: saline with Tween-80
[9] = endpoint: mean survival time, dose: 400.0 mg/kg/injection, schedule: Q04DX003 (ip), vehicle: saline with Tween-80
[10] = endpoint: mean survival time, dose: 100.0 mg/kg/injection, schedule: Q01DX001 (ip), vehicle: saline with Tween-80
[11] = endpoint: mean survival time, dose: 200.0 mg/kg/injection, schedule: Q01DX001 (ip), vehicle: saline with Tween-80
[12] = endpoint: mean survival time, dose: 400.0 mg/kg/injection, schedule: Q01DX001 (ip), vehicle: saline with Tween-80
[13] = endpoint: mean survival time, dose: 50.0 mg/kg/injection, schedule: Q01DX009 (ip), vehicle: saline

Measured: T/C

O=P(NCCCl)(NCCCl)Oc1ccccc1
inactive: endpoint: mean survival time, dose: 62.5 mg/kg/injection, schedule: Q01DX001 (ip), vehicle: water 103 % of control | endpoint: mean survival time, dose: 125.0 mg/kg/injection, schedule: Q01DX001 (ip), vehicle: water 97 % of control | endpoint: mean survival time, dose: 250.0 mg/kg/injection, schedule: Q01DX001 (ip), vehicle: water 98 % of control | endpoint: mean survival time, dose: 500.0 mg/kg/injection, schedule: Q01DX001 (ip), vehicle: water 98 % of control

CCCCCCCCCCCCCCCCC(Br)C(=O)c1ccccc1 (centres undefined)
inactive: [1] 102 % of control | [2] 95 % of control | [3] 111 % of control

CCCCCCCCCCCCCCCCOc1ccccc1CNc1cc(Cl)ccc1Cl
inactive: [4] 102 % of control | [5] 95 % of control | [6] 96 % of control | [7] 95 % of control | [8] 93 % of control | [9] 89 % of control

CC(=O)OCC1OC(OC(C)=O)C(NC(=O)Nc2ccccc2)C(OC(C)=O)C1OC(C)=O (centres undefined)
inactive: endpoint: mean survival time, dose: 12.5 mg/kg/injection, schedule: Q01DX009 (ip), vehicle: other 96 % of control | endpoint: mean survival time, dose: 25.0 mg/kg/injection, schedule: Q01DX009 (ip), vehicle: other 94 % of control | endpoint: mean survival time, dose: 50.0 mg/kg/injection, schedule: Q01DX009 (ip), vehicle: other 96 % of control | endpoint: mean survival time, dose: 100.0 mg/kg/injection, schedule: Q01DX009 (ip), vehicle: other 93 % of control | endpoint: mean survival time, dose: 200.0 mg/kg/injection, schedule: Q01DX009 (ip), vehicle: other 94 % of control

CSc1nc2cc(C)c(C)cc2[nH]1
inactive: [10] 103 % of control | [4] 97 % of control | [11] 97 % of control | [6] 97 % of control | [12] 105 % of control | [8] 94 % of control

CC(=O)OC(OC(C)=O)c1ccc([N+](=O)[O-])cc1
inactive: [4] 103 % of control | [5] 105 % of control | [6] 97 % of control | [7] 100 % of control | [8] 97 % of control | [9] 92 % of control

COC(=O)CCc1nc2ccccc2c(=O)[nH]1
inactive: endpoint: mean survival time, dose: 100.0 mg/kg/injection, schedule: Q04DX003 (ip), vehicle: Klucel (hydroxypropylcellulose) (HPC) 102 % of control | endpoint: mean survival time, dose: 200.0 mg/kg/injection, schedule: Q04DX003 (ip), vehicle: Klucel (hydroxypropylcellulose) (HPC) 109 % of control | endpoint: mean survival time, dose: 400.0 mg/kg/injection, schedule: Q04DX003 (ip), vehicle: Klucel (hydroxypropylcellulose) (HPC) 102 % of control

CCOC(=O)N1Cc2cc3ccc(OC)cc3nc2C1
inactive: [10] 98 % of control | [11] 101 % of control | [12] 103 % of control

CC1=CC(c2ccccc2)=CC(C)(C)C1 (tested in a mixture with another compound)
inactive: endpoint: mean survival time, dose: 25.0 mg/kg/injection, schedule: Q01DX009 (ip), vehicle: saline sonified 95 % of control | endpoint: mean survival time, dose: 50.0 mg/kg/injection, schedule: Q01DX009 (ip), vehicle: saline sonified 103 % of control | endpoint: mean survival time, dose: 100.0 mg/kg/injection, schedule: Q01DX009 (ip), vehicle: saline sonified 103 % of control | [5] 94 % of control

N#CC12OC1(C#N)C(=O)C=CC2=O (centres undefined)
inactive: endpoint: mean survival time, dose: 6.25 mg/kg/injection, schedule: Q01DX001 (ip), vehicle: saline 104 % of control | endpoint: mean survival time, dose: 12.5 mg/kg/injection, schedule: Q01DX001 (ip), vehicle: saline 89 % of control | endpoint: mean survival time, dose: 25.0 mg/kg/injection, schedule: Q01DX001 (ip), vehicle: saline 93 % of control

COc1cc2c(cc1O)CCCC=C2C1CCCCc2cc(O)c(OC)cc21 (centres undefined)
inactive: endpoint: mean survival time, dose: 50.0 mg/kg/injection, schedule: Q01DX009 (ip), vehicle: saline with Tween-80 96 % of control | [4] 103 % of control | [6] 96 % of control

C1CC[N-]CC1.C1CC[N-]CC1.C1CC[N-]CC1.C1CC[N-]CC1.[Cl][Rh][Cl]
inactive: endpoint: mean survival time, dose: 6.25 mg/kg/injection, schedule: Q04DX003 (ip), vehicle: saline 98 % of control | [13] 90 % of control

Cc1cccc(NC(=O)Nc2ccc(Oc3ccccc3Cl)c(S(=O)(=O)O)c2)c1
inactive: [13] 101 % of control | endpoint: mean survival time, dose: 100.0 mg/kg/injection, schedule: Q01DX009 (ip), vehicle: saline 95 % of control | endpoint: mean survival time, dose: 100.0 mg/kg/injection, schedule: Q04DX003 (ip), vehicle: saline 95 % of control | endpoint: mean survival time, dose: 200.0 mg/kg/injection, schedule: Q04DX003 (ip), vehicle: saline 95 % of control

OC1(c2ccccc2)CCN(C/C=C/c2ccc(Cl)cc2)CC1
inactive: endpoint: median survival time, dose: 25.0 mg/kg/injection, schedule: Q04DX003 (ip), vehicle: saline with Tween-80 100 % of control | endpoint: median survival time, dose: 50.0 mg/kg/injection, schedule: Q04DX003 (ip), vehicle: saline with Tween-80 90 % of control

CCO/N=C(\C)C(N)=O
inactive: [4] 101 % of control | [6] 108 % of control | [8] 95 % of control

Cc1ccc(Nc2nc(N)nc3c2ncn3C2OC(CO)C(O)C2O)cc1 (centres undefined)
inactive: endpoint: mean survival time, dose: 12.5 mg/kg/injection, schedule: Q01DX005 (ip), vehicle: distilled water + Tween-80 95 % of control | endpoint: mean survival time, dose: 25.0 mg/kg/injection, schedule: Q01DX005 (ip), vehicle: distilled water + Tween-80 90 % of control | endpoint: mean survival time, dose: 50.0 mg/kg/injection, schedule: Q01DX005 (ip), vehicle: distilled water + Tween-80 98 % of control | endpoint: mean survival time, dose: 100.0 mg/kg/injection, schedule: Q01DX005 (ip), vehicle: distilled water + Tween-80 108 % of control

CCOc1ccc2nc([NH-])sc2c1.CCOc1ccc2nc([NH-])sc2c1.[Cl][Pt+2][Cl]
inactive: endpoint: mean survival time, dose: 3.13 mg/kg/injection, schedule: Q04DX003 (ip), vehicle: distilled water + Tween-80 96 % of control | endpoint: mean survival time, dose: 6.25 mg/kg/injection, schedule: Q04DX003 (ip), vehicle: distilled water + Tween-80 96 % of control | endpoint: mean survival time, dose: 12.5 mg/kg/injection, schedule: Q04DX003 (ip), vehicle: distilled water + Tween-80 96 % of control | endpoint: mean survival time, dose: 25.0 mg/kg/injection, schedule: Q04DX003 (ip), vehicle: distilled water + Tween-80 95 % of control | endpoint: mean survival time, dose: 50.0 mg/kg/injection, schedule: Q04DX003 (ip), vehicle: distilled water + Tween-80 98 % of control | endpoint: mean survival time, dose: 100.0 mg/kg/injection, schedule: Q04DX003 (ip), vehicle: distilled water + Tween-80 101 % of control | endpoint: mean survival time, dose: 200.0 mg/kg/injection, schedule: Q04DX003 (ip), vehicle: distilled water + Tween-80 96 % of control

O=C(O)C1Cc2c([nH]c3ccccc23)C2CCC(=O)N12 (centres undefined)
inactive: [1] 100 % of control | [2] 108 % of control | [3] 100 % of control

O=c1ccn2cnc3c(ncn3C3OC(CO)C(O)C3O)c2n1 (centres undefined)
inactive: endpoint: median survival time, dose: 12.5 mg/kg/injection, schedule: Q01DX005 (ip), vehicle: saline with Tween-80 105 % of control | endpoint: median survival time, dose: 25.0 mg/kg/injection, schedule: Q01DX005 (ip), vehicle: saline with Tween-80 98 % of control | endpoint: median survival time, dose: 50.0 mg/kg/injection, schedule: Q01DX005 (ip), vehicle: saline with Tween-80 98 % of control | endpoint: median survival time, dose: 100.0 mg/kg/injection, schedule: Q01DX005 (ip), vehicle: saline with Tween-80 103 % of control | endpoint: median survival time, dose: 200.0 mg/kg/injection, schedule: Q01DX005 (ip), vehicle: saline with Tween-80 103 % of control

OC1CC2CCC(C1)N2CCCN1c2ccccc2Sc2ccc(Cl)cc21 (centres undefined)
inactive: endpoint: mean survival time, dose: 7.5 mg/kg/injection, schedule: Q01DX009 (ip), vehicle: saline 91 % of control | endpoint: mean survival time, dose: 15.0 mg/kg/injection, schedule: Q01DX009 (ip), vehicle: saline 98 % of control | endpoint: mean survival time, dose: 18.0 mg/kg/injection, schedule: Q04DX003 (ip), vehicle: saline with Tween-80 99 % of control | endpoint: mean survival time, dose: 27.0 mg/kg/injection, schedule: Q04DX003 (ip), vehicle: saline with Tween-80 94 % of control | endpoint: mean survival time, dose: 30.0 mg/kg/injection, schedule: Q01DX009 (ip), vehicle: saline 109 % of control | endpoint: mean survival time, dose: 40.0 mg/kg/injection, schedule: Q04DX003 (ip), vehicle: saline with Tween-80 103 % of control | endpoint: mean survival time, dose: 60.0 mg/kg/injection, schedule: Q04DX003 (ip), vehicle: saline with Tween-80 123 % of control

Cn1c(C(=O)c2ccncc2)cc2ccccc21
inactive: [10] 103 % of control | [1] 100 % of control | [11] 103 % of control | [2] 100 % of control | [12] 103 % of control | [3] 95 % of control

CCOC(=O)C(=O)c1c(N)n(C)c(=O)n(C)c1=O
inactive: endpoint: mean survival time, dose: 6.25 mg/kg/injection, schedule: Q01DX009 (ip), vehicle: Klucel (hydroxypropylcellulose) (HPC) 112 % of control | endpoint: mean survival time, dose: 12.5 mg/kg/injection, schedule: Q01DX009 (ip), vehicle: Klucel (hydroxypropylcellulose) (HPC) 87 % of control | endpoint: mean survival time, dose: 25.0 mg/kg/injection, schedule: Q01DX009 (ip), vehicle: Klucel (hydroxypropylcellulose) (HPC) 102 % of control

CCCCOc1ccc(Cl)cc1
inactive: [1] 90 % of control | [2] 87 % of control
